According to patent US8586307B2, “Methods for diagnosing epigenetic, transgenerational effects of environmental toxicants on mammalian germ-lines and treating associated diseases” (priority 2005, dated 2013):

Columns and labels:
[1] = General observations (body weight, litter size, serum testosterone, other tissues); format: in vivo, rat
Description: In Vivo Procedures: Gestating outbred Sprague-Dawley and inbred Fisher mother rats from timed, pregnant colonies housed at the Washington State University Vivarium, were given intraperitoneal injections of vinclozolin (100 mg/kg/day) and methoxychlor (200 mg/kg/day) from embryonic day 8-15 (E8-E15, sperm positive vaginal smear date=E0) of gestation (F0 generation) as previously described. Gestating mothers administered vehicle, sesame oil or DMSO, served as controls. At least 6 lines (individual F0 injected females) were generated for controls and treated groups for these analyses. Male rats from control and treated groups were collected at P60-P180 for analyses. F1 treated males were bred to F1 treated females to generate the F2 treated generation and F2 treated males were bred to F2 treated females to generate the F3 generation and the F3 were bred in the same manner to generate the F4 generation. Rats for the control groups were bred in the same manner for all the generations. No inbreeding or sibling crosses were generated. The outcross group (VOC) were generated by breeding the F2 treated males with wild-type females (total of 6 litters) and reverse outcross group (RVOC) was generated by breeding F2 treated females with wild-type males (total of 3 litters). Control (n=4) and treated (n=4) male offspring from the F1 generation from Fisher strain rats were collected at P6 for DNA methylation analysis, see below. All procedures have been approved by the Washington State University Animal Care Committee. The number of animals used for replicates in the experiments (i.e. n value) are as follows for vinclozolin treatment: F1 (control 11, treated 12); F2 (control 19, treated 30); F3 (control 19, treated 26); F4 (control 10, treated 17); VOC (18); and RVOC (6). For methoxychlor treatment animal number was for F1 (control 6, treated 9) and F2 (control 16, treated 22).

F1 generation testis = details: cited from earlier work

Compound: COc1ccc(C(c2ccc(OC)cc2)C(Cl)(Cl)Cl)cc1 [methoxychlor]
- serum testosterone levels ([1]; all the animals): normal
- effect on total body weight ([1]; endocrine disruptor treatment, F1): no effect
- gross abnormality in any other tissues examined ([1]; rat, in vivo): No gross abnormality
- adult F1 generation testis phenotype (F1 generation testis; gestating mother exposed E8-E15, 100 or 200 mg/kg i.p. daily): reduced spermatogenic capacity, increased spermatogenic cell apoptosis and decreased sperm number and motility
- effect on the F1 generation testis (F1 generation testis; transient exposure E15-E20): no effect
